Measured values as given in patent publication US20150307938A1, “METHOD TO IDENTIFY A NOVEL CLASS OF IMMUNOLOGIC ADJUVANTS” (Lancell, L.L.C., priority 2011, published 2015).
Marks after values point to notes of the source that are not given here.

Tested on: full thickness skin
Test: Whole genome array of skin gene expression after topical DBP (time course)
Assay type: in vivo, C57BL/6J mice
Protocol: Mice: C57BL/6J female mice obtained from The Jackson Laboratory were used between 8 and 12 weeks of age.
Treatment: Mice were untreated or treated topically on the dorsal side of each ear with […] of dibutylphthalate (DBP). At the designated time points after treatment, the animals were euthanized and the ears washed with 70% isopropanol. Full thickness skin was obtained from the dorsal side of both ears and placed immediately in liquid nitrogen. The time between euthanasia and placement of both skin samples in liquid nitrogen was less than 1 minute. Each sample for RNA extraction contained two dorsal ear skin samples obtained from a single mouse both of whose ears received the same treatment.
RNA Extraction: While in liquid nitrogen, the skin was pulverized with a motorized mortar and pestle (CryoGrinder), transferred by inversion of the mortar directly into 1.5 ml cryogenic vials (Nalgene) and stored in liquid nitrogen until RNA extraction. Total RNA from both ears was extracted by homogenization (Pro200) in TRIzol Reagent (Invitrogen) with 7.5 μg of RNase-free glycogen added to the mixture, according to the manufacturer's directions. The RNA was purified on a solid phase RNeasy MinElute Cleanup column (Qiagen) and eluted with 17 μL of RNase-free water. The samples were stored at −20° C. until use.
Quantification of RNA: RNA yields were quantified by UV absorption using a NanoDrop NG-1000 spectrophotometer, where 1 AU 260 equals 40 μg RNA/ml. Purity was estimated by the 260 and 280 nm absorbance ratio; values between 1.7 and 2.1 were considered acceptable.
Assessment of RNA Quality: The quality of sample RNA was assessed using a RNA 6000 LABCHIP Kit on an Agilent 2100 Bioanalyzer. The Bioanalyzer determines the integrity/purity of the RNA samples and permits the screening of total and mRNA sample degradation and ribosomal RNA contamination. An RNA 6000 ladder was also loaded on a specified well and used as a reference for data analysis and a built-in quality control measure. The quality and integrity of the RNA was determined through visual inspection of each electropherogram. In general, only samples with a RIN (RNA integrity number) of 7 or greater, as determined by the Bioanalyzer, were used for gene arrays. This quality control analysis was repeated following the labeling procedure to ensure that the probes were efficiently labeled and had the correct size before hybridization to the chips. All samples that were run on genome wide arrays were obtained as independent duplicates from two individual mice.
Microarray Data Interpretation: Gene expression was compared between untreated and treated total RNA samples. “Transition” data, which represent the change in expression level for a given gene, are presented as a “weighted difference.” Changes in gene expression level were considered to be significant when the adjusted p values were less than […]. The “gene expression signature” arbitrarily includes only those genes that were transcribed with a weighted increase of 2.0 or greater, which was sustained over the subsequent time points tested.
The weighted difference is a metric that takes into account both the variability between different time-points and the variability between replicates at the same time-point. The calculations are performed for each time-point transition, i.e., 30 minutes vs. 1 hour, 1 hour vs. 2 hours, etc. There are two steps to the calculation: the calculation of a modified Euclidean difference between the two time-points, and the calculation of the Euclidean difference between the replicates within each time-point. The first measure is an unweighted difference, while the final metric given in the spreadsheet “weights” this difference by taking into account the second measure.
In a Euclidean difference calculation, each data point is considered as a vector in a multi-dimensional space, and the actual straight-line distance between the data points is calculated. […]

CCCCOC(=O)c1ccccc1C(=O)OCCCC [DBP, dibutylphthalate]
% Shared (DBP-induced genes also TLR-induced) (15 min): 64%
DBP Unique genes, number (15 min): 12
TLR-Induced among DBP-induced genes, number (15 min): 21^
DBP-Induced genes (≧2x Increased Expression), number (15 min, early response genes): 33*
Acot5 Change in Gene Expression (Weighted Difference) (15 min to 30 min Transition): 1.225
Akr1c18 Change in Gene Expression (Weighted Difference) (15 min to 30 min Transition): −0.6119
Atp2c2 Change in Gene Expression (Weighted Difference) (15 min to 30 min Transition): 0.1754
Btg2 Change in Gene Expression (Weighted Difference) (15 min to 30 min Transition): 5.994
Ccr4 Change in Gene Expression (Weighted Difference) (15 min to 30 min Transition): −0.287
Cdh10 Change in Gene Expression (Weighted Difference) (15 min to 30 min Transition): 0.1979
Cish Change in Gene Expression (Weighted Difference) (15 min to 30 min Transition): 1.725
Cox17 Change in Gene Expression (Weighted Difference) (15 min to 30 min Transition): −0.6572
Cysltr1 Change in Gene Expression (Weighted Difference) (15 min to 30 min Transition): −1.813
Egr1 Change in Gene Expression (Weighted Difference) (15 min to 30 min Transition): 4.967
Egr2 Change in Gene Expression (Weighted Difference) (15 min to 30 min Transition): 1.229
Frk Change in Gene Expression (Weighted Difference) (15 min to 30 min Transition): −5.361
Gbp8 Change in Gene Expression (Weighted Difference) (15 min to 30 min Transition): 0.5698
Gem Change in Gene Expression (Weighted Difference) (15 min to 30 min Transition): 2.697
Gimap7 Change in Gene Expression (Weighted Difference) (15 min to 30 min Transition): −0.2249
Ier3 Change in Gene Expression (Weighted Difference) (15 min to 30 min Transition): 12.73
Il10ra Change in Gene Expression (Weighted Difference) (15 min to 30 min Transition): 2.226
Jun Change in Gene Expression (Weighted Difference) (15 min to 30 min Transition): 1.717
Junb Change in Gene Expression (Weighted Difference) (15 min to 30 min Transition): 3.924
LOC100046066 Change in Gene Expression (Weighted Difference) (15 min to 30 min Transition): −2.104
Madcam1 Change in Gene Expression (Weighted Difference) (15 min to 30 min Transition): 0.2824
Med17 Change in Gene Expression (Weighted Difference) (15 min to 30 min Transition): −0.2295
Mkks Change in Gene Expression (Weighted Difference) (15 min to 30 min Transition): −2.533
Mndal Change in Gene Expression (Weighted Difference) (15 min to 30 min Transition): 1.805
Myc Change in Gene Expression (Weighted Difference) (15 min to 30 min Transition): 2.987
N6amt2 Change in Gene Expression (Weighted Difference) (15 min to 30 min Transition): −0.7998
Nr4a1 Change in Gene Expression (Weighted Difference) (15 min to 30 min Transition): 5.842
P2ry1 Change in Gene Expression (Weighted Difference) (15 min to 30 min Transition): −2.116
Prf1 Change in Gene Expression (Weighted Difference) (15 min to 30 min Transition): −0.05377
Sik1 Change in Gene Expression (Weighted Difference) (15 min to 30 min Transition): 2.597
Slc39a8 Change in Gene Expression (Weighted Difference) (15 min to 30 min Transition): 25.27
Tmed3 Change in Gene Expression (Weighted Difference) (15 min to 30 min Transition): −0.4993
Zfp36 Change in Gene Expression (Weighted Difference) (15 min to 30 min Transition): 10.7
% Shared (DBP-induced genes also TLR-induced) (30 min): 64%
DBP Unique genes, number (30 min): 107
DBP-Induced genes (≧2x Increased Expression), number (30 min): 297
TLR-Induced among DBP-induced genes, number (30 min): 190^#
Acot5 Change in Gene Expression (Weighted Difference) (30 min to 1 hr Transition): 1.878
Akr1c18 Change in Gene Expression (Weighted Difference) (30 min to 1 hr Transition): 1.114
Atp2c2 Change in Gene Expression (Weighted Difference) (30 min to 1 hr Transition): −0.008704
Btg2 Change in Gene Expression (Weighted Difference) (30 min to 1 hr Transition): 2.926
Ccr4 Change in Gene Expression (Weighted Difference) (30 min to 1 hr Transition): 0.2055
Cdh10 Change in Gene Expression (Weighted Difference) (30 min to 1 hr Transition): 0.2384
Cish Change in Gene Expression (Weighted Difference) (30 min to 1 hr Transition): 1.825
Cox17 Change in Gene Expression (Weighted Difference) (30 min to 1 hr Transition): −0.02512
Cysltr1 Change in Gene Expression (Weighted Difference) (30 min to 1 hr Transition): 0.06681
Egr1 Change in Gene Expression (Weighted Difference) (30 min to 1 hr Transition): 5.495
Egr2 Change in Gene Expression (Weighted Difference) (30 min to 1 hr Transition): 2.326
Frk Change in Gene Expression (Weighted Difference) (30 min to 1 hr Transition): 3.985
Gbp8 Change in Gene Expression (Weighted Difference) (30 min to 1 hr Transition): 0.1048
Gem Change in Gene Expression (Weighted Difference) (30 min to 1 hr Transition): 3.044
Gimap7 Change in Gene Expression (Weighted Difference) (30 min to 1 hr Transition): −0.004049
Ier3 Change in Gene Expression (Weighted Difference) (30 min to 1 hr Transition): 7.145
Il10ra Change in Gene Expression (Weighted Difference) (30 min to 1 hr Transition): 0.6152
Jun Change in Gene Expression (Weighted Difference) (30 min to 1 hr Transition): 0.7234
Junb Change in Gene Expression (Weighted Difference) (30 min to 1 hr Transition): 2.771
LOC100046066 Change in Gene Expression (Weighted Difference) (30 min to 1 hr Transition): 2.144
Madcam1 Change in Gene Expression (Weighted Difference) (30 min to 1 hr Transition): 0.046
Med17 Change in Gene Expression (Weighted Difference) (30 min to 1 hr Transition): 0.06201
Mkks Change in Gene Expression (Weighted Difference) (30 min to 1 hr Transition): 0.2811
Mndal Change in Gene Expression (Weighted Difference) (30 min to 1 hr Transition): 0.3272
Myc Change in Gene Expression (Weighted Difference) (30 min to 1 hr Transition): 1.895
N6amt2 Change in Gene Expression (Weighted Difference) (30 min to 1 hr Transition): 0.0833
Nr4a1 Change in Gene Expression (Weighted Difference) (30 min to 1 hr Transition): 1.556
P2ry1 Change in Gene Expression (Weighted Difference) (30 min to 1 hr Transition): 1.47
Prf1 Change in Gene Expression (Weighted Difference) (30 min to 1 hr Transition): 0.5182
Sik1 Change in Gene Expression (Weighted Difference) (30 min to 1 hr Transition): 0.7241
Slc39a8 Change in Gene Expression (Weighted Difference) (30 min to 1 hr Transition): 2.304
Tmed3 Change in Gene Expression (Weighted Difference) (30 min to 1 hr Transition): −0.1953
Zfp36 Change in Gene Expression (Weighted Difference) (30 min to 1 hr Transition): 2.8
% Shared (DBP-induced genes also TLR-induced) (1 hr): 69%
DBP Unique genes, number (1 hr): 26
DBP-Induced genes (≧2x Increased Expression), number (1 hr): 83
TLR-Induced among DBP-induced genes, number (1 hr): 57^#
Acot5 Change in Gene Expression (Weighted Difference) (1 hr to 2 hr Transition): 12.15
Akr1c18 Change in Gene Expression (Weighted Difference) (1 hr to 2 hr Transition): −0.2471
Atp2c2 Change in Gene Expression (Weighted Difference) (1 hr to 2 hr Transition): 0.331
Btg2 Change in Gene Expression (Weighted Difference) (1 hr to 2 hr Transition): −0.01005
Ccr4 Change in Gene Expression (Weighted Difference) (1 hr to 2 hr Transition): −0.03096
Cdh10 Change in Gene Expression (Weighted Difference) (1 hr to 2 hr Transition): −0.1519
Cish Change in Gene Expression (Weighted Difference) (1 hr to 2 hr Transition): 0.9334
Cox17 Change in Gene Expression (Weighted Difference) (1 hr to 2 hr Transition): 0.1604
Cysltr1 Change in Gene Expression (Weighted Difference) (1 hr to 2 hr Transition): −1.794
Egr1 Change in Gene Expression (Weighted Difference) (1 hr to 2 hr Transition): −0.2127
Egr2 Change in Gene Expression (Weighted Difference) (1 hr to 2 hr Transition): −0.1057
Frk Change in Gene Expression (Weighted Difference) (1 hr to 2 hr Transition): −0.2672
Gbp8 Change in Gene Expression (Weighted Difference) (1 hr to 2 hr Transition): −1.039
Gem Change in Gene Expression (Weighted Difference) (1 hr to 2 hr Transition): 0.6484
Gimap7 Change in Gene Expression (Weighted Difference) (1 hr to 2 hr Transition): 0.1331
Ier3 Change in Gene Expression (Weighted Difference) (1 hr to 2 hr Transition): 0.7786
Il10ra Change in Gene Expression (Weighted Difference) (1 hr to 2 hr Transition): 0.1326
Jun Change in Gene Expression (Weighted Difference) (1 hr to 2 hr Transition): −0.001533
Junb Change in Gene Expression (Weighted Difference) (1 hr to 2 hr Transition): −0.0754
LOC100046066 Change in Gene Expression (Weighted Difference) (1 hr to 2 hr Transition): −0.8577
Madcam1 Change in Gene Expression (Weighted Difference) (1 hr to 2 hr Transition): −0.04597
Med17 Change in Gene Expression (Weighted Difference) (1 hr to 2 hr Transition): 0.1073
Mkks Change in Gene Expression (Weighted Difference) (1 hr to 2 hr Transition): −0.1657
Mndal Change in Gene Expression (Weighted Difference) (1 hr to 2 hr Transition): 0.5733
Myc Change in Gene Expression (Weighted Difference) (1 hr to 2 hr Transition): −0.01449
N6amt2 Change in Gene Expression (Weighted Difference) (1 hr to 2 hr Transition): −0.07791
Nr4a1 Change in Gene Expression (Weighted Difference) (1 hr to 2 hr Transition): −0.4734
P2ry1 Change in Gene Expression (Weighted Difference) (1 hr to 2 hr Transition): −0.5171
Prf1 Change in Gene Expression (Weighted Difference) (1 hr to 2 hr Transition): −0.3117
Sik1 Change in Gene Expression (Weighted Difference) (1 hr to 2 hr Transition): 0.007769
Slc39a8 Change in Gene Expression (Weighted Difference) (1 hr to 2 hr Transition): 1.188
Tmed3 Change in Gene Expression (Weighted Difference) (1 hr to 2 hr Transition): −0.2575
Zfp36 Change in Gene Expression (Weighted Difference) (1 hr to 2 hr Transition): 0.1025
% Shared (DBP-induced genes also TLR-induced) (2 hr): 63%
